Measurements taken from patent US20080146555A1, “Uses of Kinase Inhibitors and Compositions Thereof” (GPC Biotech, Inc, priority 2004, published 2008).
Structures can show the parent of a compound that is named as a salt. Where two headings read alike, the source gives them in different places.

Columns and labels:
HCT-116 cells [1] = assay: Clonogenic survival assay with HCT-116 cells; format: cell-based; settings: Homo sapiens, 24 hour compound exposure, read-out: Clonogenic survival IC50, HCT-116
Experimental: This assay was used to determine the concentration of a compound that results in irreversible loss of viability after a specified period of exposure. Essentially, cells are exposed to compound for a period of […], and are then transferred to compound-free growth medium. After continued incubation in the compound-free medium for a number of days, the number of colonies recovered is counted as an estimate of the number of surviving cells.
Media (RPMI-1640, 10% FCS, pen/strep) was pre-warmed to 37° C. in a water bath. Cells were incubated and grown at 37° C., 5% CO2. Cells were recovered by trypsinization from sub-confluent plates and counted using a hemocytometer. 1×10^4 cells were plated in 25 mls of media in a 15 cm tissue culture dish. […] were set up for each test compound, and were incubated overnight at 37° C. The compound was diluted into media at 7 concentrations and the media on the cells was replaced with that containing the test compound. Two plates were set up for each concentration of the compound to be tested, as well as two control plates without compound. Plates were incubated as above for […], media was removed and replaced with fresh media, and the plates were incubated an additional 7 days and washed with PBS. Colonies were stained with crystal violet solution (0.4% crystal violet, 20% ethanol) for 5 minutes, washed twice with distilled water, and counted.

HCT-116 cells [2] = assay: Calcein AM viability assay, HCT-116; format: cell-based; settings: Homo sapiens
Outline: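 Cells (HCT-116 1,000, IMR90 4,000 per well) adhered overnight, then received 7 doses from 0 to 250 nM for 72 h at 37 °C. Viability read as calcein fluorescence after 75 min with Calcein AM; IC50 values, with protein-adjusted values also obtained in HCT-116.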

Cdk1 = Cdk1 (Homo sapiens, UniProt P06493); assay: Cdk1 inhibition; format: biochemical
Text: Further inhibition results for subject compounds of the invention against other CDKs and further kinases are shown in Table 5, Table II and described in Example 6.
Table 3, Table 4, Table 5 and Table II show the results obtained for inhibition of a broad range of such kinases for subject compounds of the invention.

Yes = biological target: T1, Yes (Homo sapiens, UniProt P07947); assay: Yes kinase assay; format: biochemical
T1 construct: purchased Upstate 14-478
Experimental: • 1. 2.5× Reaction Buffer: 20 mM MOPS, 0.5 mM EDTA. • 2. Enzyme Dilution Buffer (EDB): 20 mM MOPS pH 7.0, 1 mM EDTA, 0.01% Brij-35, 5% glycerol, 0.1% β-mercaptoethanol, 1 mg/ml BSA. • 3. Yes, active: Dilute to 0.4 ng-4 ng/μl with EDB. Use 2.5 μl per assay point. • 4. Poly(Glu-4-Tyr) substrate: Prepare a 1 mg/ml stock solution. Use 2.5 μl per assay point for a final concentration of 0.1 mg/ml per assay point. • 5. [γ-^32P]ATP: Stock 1 mCi/100 μl (3000 Ci/mmol, obtained from PerkinElmer, Cat. # BLU002A). Make 10 μl aliquots (100 μCi/vial). Before starting the assay, dilute an aliquot to 1 μCi/μl with 90 μl of 75 mM MgCl2 and 500 μM cold ATP in 20 mM MOPS, pH 7.2, 25 mM β-glycerol phosphate, 5 mM EGTA, 1 mM sodium orthovanadate, 1 mM dithiothreitol.
• 1. Add 10 μl of 2.5× Reaction Buffer per assay. • 2. Add 2.5 μl of Poly(Glu-4-Tyr) substrate (0.1 mg/ml). • 3. Add 2.5 μl of Yes, active (1 ng-10 ng). • 4. Add […] of the diluted [γ-^32P]ATP solution. • 5. Incubate for 10 minutes at 30° C. • 6. Transfer a 20 μl aliquot onto the center of a 2 cm×2 cm P81 paper. • 7. Wash the assay squares three times for 5 minutes with 0.75% phosphoric acid. • 8. Wash the assay squares once for 5 minutes with acetone. • 9. Transfer the assay squares to vial and add 5 ml scintillation cocktail. • 10. Read in scintillation counter. Compare cpm of enzyme samples to cpm of control samples that contain background control.

cell cycle = assay: Cell cycle arrest; format: cell-based
[3] = HCT-116, non-protein adjusted, Table 4, read-out: HCT-116 viability IC50
[4] = HCT-116, text b600, read-out: HCT-116 protein-adjusted viability IC50
[5] = HCT-116, text b600, read-out: HCT-116 viability IC50
[6] = read-out: YES1 Inhibition (IC50)

T1 sequence (P07947 whole entry): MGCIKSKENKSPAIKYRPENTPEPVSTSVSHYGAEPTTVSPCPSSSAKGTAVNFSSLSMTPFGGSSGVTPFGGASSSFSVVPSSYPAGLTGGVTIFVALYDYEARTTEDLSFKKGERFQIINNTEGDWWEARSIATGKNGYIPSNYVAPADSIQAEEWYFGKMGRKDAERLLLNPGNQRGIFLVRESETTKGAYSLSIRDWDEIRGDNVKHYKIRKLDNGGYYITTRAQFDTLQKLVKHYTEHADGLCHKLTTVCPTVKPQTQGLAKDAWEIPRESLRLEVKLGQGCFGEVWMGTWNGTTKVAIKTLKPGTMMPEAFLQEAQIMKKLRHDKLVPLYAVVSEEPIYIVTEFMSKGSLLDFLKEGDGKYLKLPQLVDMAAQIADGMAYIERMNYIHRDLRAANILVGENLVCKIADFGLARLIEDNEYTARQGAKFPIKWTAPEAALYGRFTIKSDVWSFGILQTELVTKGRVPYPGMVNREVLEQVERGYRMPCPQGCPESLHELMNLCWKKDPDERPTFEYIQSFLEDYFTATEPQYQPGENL
Sequence of Cdk1 (P06493 whole entry, species assumed): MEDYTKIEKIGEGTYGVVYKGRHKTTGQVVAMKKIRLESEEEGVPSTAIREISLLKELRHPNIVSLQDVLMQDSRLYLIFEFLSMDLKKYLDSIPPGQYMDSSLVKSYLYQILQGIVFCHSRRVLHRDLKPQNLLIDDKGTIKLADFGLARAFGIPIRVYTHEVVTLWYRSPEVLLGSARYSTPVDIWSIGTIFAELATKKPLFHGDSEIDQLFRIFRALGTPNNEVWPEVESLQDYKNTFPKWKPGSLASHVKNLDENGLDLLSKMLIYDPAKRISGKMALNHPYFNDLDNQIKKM
Sequence of Cdk1 (P14635 whole entry partner, species assumed): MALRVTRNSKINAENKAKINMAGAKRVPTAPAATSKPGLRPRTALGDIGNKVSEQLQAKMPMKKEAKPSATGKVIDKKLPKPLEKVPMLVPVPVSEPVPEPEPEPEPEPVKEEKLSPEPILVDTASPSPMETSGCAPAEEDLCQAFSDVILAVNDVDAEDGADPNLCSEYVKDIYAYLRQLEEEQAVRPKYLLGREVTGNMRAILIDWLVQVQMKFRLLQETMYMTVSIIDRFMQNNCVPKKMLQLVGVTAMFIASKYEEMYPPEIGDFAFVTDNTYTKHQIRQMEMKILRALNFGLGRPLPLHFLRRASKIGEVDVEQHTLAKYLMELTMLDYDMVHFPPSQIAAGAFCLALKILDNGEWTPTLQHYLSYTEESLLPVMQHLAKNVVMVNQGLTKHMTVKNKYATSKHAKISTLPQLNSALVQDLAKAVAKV

## CC(C)N1CCN(C(=O)COc2ccc(-c3n[nH]c4c3C(=O)c3c(NC(=O)NN5CCOCC5)cccc3-4)cc2)CC1 [Compound A37]
HCT-116 cells [1]
  IC50: < 50 nM
HCT-116 cells [2]; [3]
  IC50: < 100 nM
HCT-116 cells [2]; [4]
  IC50: < 500 nM
HCT-116 cells [2]; [5]
  IC50: < 50 nM
Cdk1
  IC50: < 50 nM
Yes; [6]
  IC50: < 50 nM
Cell cycle
  cell cycle arrest: predominantly G1 arrest

## COCCN1CCN(Cc2ccc(-c3n[nH]c4c3C(=O)c3c(NC(=O)NN5CCOCC5)cccc3-4)cc2)CC1 [Compound B16, N-[3-(4-{[4-(2-methoxyethyl)piperazinyl]methyl}phenyl)-4-oxoindeno[2,3-d]pyrazol-5-yl](morpholin-4-ylamino)carboxamide dihydrochloride]
HCT-116 cells [1]
  IC50: < 100 nM
HCT-116 cells [2]; [3]
  IC50: < 10 nM
HCT-116 cells [2]; [4]
  IC50: < 500 nM
HCT-116 cells [2]; [5]
  IC50: < 10 nM
Cdk1
  IC50: < 5 nM
Yes; kinase panel, 10 μM ATP, read-out: Yes IC50
  IC50: < 100 nM
Yes; [6]
  IC50: < 50 nM
Cell cycle
  cell cycle arrest: predominantly G1 arrest
